# Test results: patent US20220226329A1, “METHOD TO INDUCE HEMATOPOIETIC CHIMERISM” (The General Hospital Corporation, priority 2019, published 2022)
# “And” between values parts separate entries of the source, which are not always exact repeats. Equal entries are not always repeated. “Also recorded” adds a separate entry of the source.
# How the values were obtained:
# [1] = tested on: Bcl-2, Bcl-xL, Bcl-w, Mcl-1; details: literature statements; cited from earlier work
# [2] = tested on: hematopoietic stem cells (HSCs); test: Drug-only study: HSC deletion in bone marrow (flow cytometry) and total CFU assay; assay type: in vivo, cynomolgus macaques; details: S63845 5 mg/kg x 5 alone
# Description: In certain embodiments, the deletion of CD34^+ cells of the bone marrow can be determined using flow cytometry and comparing the amount of CD34^+ cells of the bone marrow to pre-treatment levels. The reduction in total colony forming units can be measured by a CFU assay and comparing the CFUs to pre-treatment levels.
# [3] = tested on: BAX (the BCL-2-associated X protein); test: Intrinsic apoptosis: expression of BAX and other apoptotic markers in peripheral lymphocytes (flow cytometry, CyTOF); assay type: in vivo, Cynomolgus monkeys; details: 10 mg/kg x 11 (day -4 to +6), TBI 1.5 Gy regimen, n=3
# Method: To examine intrinsic apoptosis induced by ABT-199, expression of BAX (the BCL-2-associated X protein), which is pro-apoptotic protein that plays an important role in the mitochondria-dependent apoptotic pathway was assessed.
# Flow cytometric and CyTOF analyses: Peripheral blood mononuclear cells (PBMCs) were labeled with a combination of the following mAbs: CD3 (SP34-2), CD4 (L200), CD8 (SK1), CD21 (B-ly4), CD27 (M-T271), CD28 (CD28.2), CD95 (DX2), and IgM (G20-127) (BD Pharmingen, San Jose, Calif.), CD20 (2H7) (Biolegend, Inc., San Diego, Calif.) and FOXP3 (236A/E7) (eBioscience, Inc., San Diego, Calif.). The fluorescence of the stained samples was analyzed using FACSverse (BD Biosciences, San Jose, Calif.) and Accuri flow cytometers (BD PharMingen), and FlowJo software (Tree Star, Inc., Ashland, Oreg.). A CyTOF panel for cynomolgus monkeys was designed. The CyTOF panel consisted of antibodies against various NHP leukocyte markers including CD3, CD4, CD8, Foxp3, CD127, CTLA4, Ki-67, CD95, CD20, CD21, CD27, CD38, CD123, CD31, CD11c, CD25, HLA-DR, CD45RA, CD159 (NKG2a), Granzyme B, Caspase 3/7/9, Bax and Cytochrom C.
# [4] = Blood counts (CBC: white blood cells, neutrophils, platelets, HCT) after conditioning and transplantation; assay type: in vivo, Cynomolgus monkeys
# Method: Combined kidney and bone marrow transplantation (CKBMT): All recipients were conditioned with total body irradiation (TBI) (1.5 Gy on day −5, relative to the day of CKBMT), local thymic irradiation (TI) (7 Gy on day −1) and equine-derived anti-thymocyte globulin (hATG) (Atgam; Pharmacia and Upjohn, Kalamazoo, Mich.; 50 mg/kg/day i.v. on days −2, −1 and 0). Following DBMT, the recipients were also treated with anti-CD154 mAb (5c8; 20 mg/kg i.v. on days 0 and 2, 7, and 12 post-DBMT). Cyclosporine A (CyA, Novartis, Basel, Switzerland) was administered intramuscular (IM) on days 0-27 post DBMT, after which no immunosuppression was administered (FIG. 6).
# (§1) Statistical analyses: Statistical analysis was performed with GraphPad PRISM 7.01 (GraphPad Software, Inc, San Diego, Calif.). We used two way ANOVA to compare chimerism, CBC, and T cell subsets. Mantel-Cox log-rank test was used to analyze survival of different groups and. P values lower than 0.05 have been considered statistically significant.
# Cynomolgus monkeys [5] = test: Renal allograft survival / rejection after CKBMT without maintenance immunosuppression; assay type: in vivo; details: per animal
# Method: To evaluate whether Bcl-2 inhibitor (ABT-199) can promote engraftment of hematopoietic stem cells with reduced myelosuppressive therapy, monkeys were treated with various modified regimens with ABT-199 and compared with standard regimen without ABT-199. The basic conditioning regimen consisted of low dose total body irradiation (TBI), thymic irradiation (TI, 7 Gy) and peri-transplant ATG administration. […] In Groups C-E, 10 mg/kg of ABT-199 was administered for 11 days (day −4 to day 6). Animals were divided into five groups according to the treatments (Table 1).
# (§2) Animals and pair selections: Cynomolgus monkeys, including donor animals, weighing 4-8 kg were used for this study (Charles River Primates, Wilmington, Mass.). Donors and recipients were paired on the basis of ABO blood type compatibility and major histocompatibility complex (MHC) mismatching. MHC characterization was performed as previously described (O'Connor, S. L., et al. 2007, Immunogenetics 59, 449-462.; Pendley, C. J., et al. 2008, Immunogenetics 60, 339-351.). All surgical procedures and postoperative care of animals were performed in accordance with National Institute of Health guidelines for the care and use of primates and were approved by the Massachusetts General Hospital Institutional Animal Care and Use Committee (IACUC).
# Combined kidney and bone marrow transplantation (CKBMT): All recipients were conditioned with total body irradiation (TBI) (1.5 Gy on day −5, relative to the day of CKBMT), local thymic irradiation (TI) (7 Gy on day −1) and equine-derived anti-thymocyte globulin (hATG) (Atgam; Pharmacia and Upjohn, Kalamazoo, Mich.; 50 mg/kg/day i.v. on days −2, −1 and 0). […] Cyclosporine A (CyA, Novartis, Basel, Switzerland) was administered intramuscular (IM) on days 0-27 post DBMT, after which no immunosuppression was administered (FIG. 6).
# Kidney transplantation (KTx): Monkeys underwent heterotopic KTx and nephrectomy as previously described (Cosimi, A. B., et al. 1990, Surgery 108, 406-413.).
# as §1
# Cynomolgus monkeys [6] = test: Hematopoietic chimerism after combined kidney and bone marrow transplantation (CKBMT), flow cytometry of peripheral blood; assay type: in vivo; details: recipients with chimerism/total
# Method: To evaluate whether Bcl-2 inhibitor (ABT-199) can promote engraftment of hematopoietic stem cells with reduced myelosuppressive therapy, monkeys were treated with various modified regimens with ABT-199 and compared with standard regimen without ABT-199. The basic conditioning regimen consisted of low dose total body irradiation (TBI), thymic irradiation (TI, 7 Gy) and peri-transplant ATG administration. After combined kidney and bone marrow transplantation, the recipients were treated with anti-CD154 mAb for 2 weeks and CyA for 4 weeks, after which no immunosuppression was given (FIG. 1). In Groups C-E, 10 mg/kg of ABT-199 was administered for 11 days (day −4 to day 6). Animals were divided into five groups according to the treatments (Table 1).
# as §2
# Following DBMT, the recipients were also treated with anti-CD154 mAb (5c8; 20 mg/kg i.v. on days 0 and 2, 7, and 12 post-DBMT). Cyclosporine A (CyA, Novartis, Basel, Switzerland) was administered intramuscular (IM) on days 0-27 post DBMT, after which no immunosuppression was administered (FIG. 6).
# Bone marrow transplantation: Donor bone marrow cells (DBMC) were obtained by multiple aspirations from the iliac crests, humerus head, and vertebral bones under general anesthesia. If the donor animal was sacrificed, DBMC were harvested from the vertebral bones after euthanasia. DBMC (1.0-3.0×10^8 mononuclear cells/kg) were infused intravenously.
# Detection of hematopoietic chimerism: A monkey was selected that was either BB7.6 (HLA-B7B40) positive or a H38 (HLA-BW6) positive monkey as a donor and a monkey negative to these antibodies was selected as a recipient. In all experiments, the percentage of cells that stained with each mAb was determined from one color fluorescence histogram and compared with those obtained from donor and pretreatment frozen recipient cells, which were used as positive and negative controls. The percentage of cells considered positive was determined with a cutoff chosen as the fluorescence level at the beginning of the positive peak for the positive control stain and by subtracting the percentage of cells stained with an isotype control. By using forward and 90° light scatter (FSC and SSC, respectively) dot plots, lymphocyte (FSC- and SSC-low), granulocyte (SSC-high), and monocyte (FSC-high but SSC-low) populations were gated, and chimerism was determined separately for each population. Nonviable cells were excluded by propidium iodide (Thermo Fischer Scientific, Grand Island, N.Y.) staining.
# [7] = Example 2 Group D: ABT-199 +, TBI 0 Gy, TI 7 Gy
# [8] = Example 2 Group E: ABT-199 +, TBI 1.5 Gy, TI 0 Gy
# [9] = Example 3 Group E: venetoclax +, TBI 1.5 Gy, TI 7 Gy, CoB Belatacept
# [10] = Example 3 Group F: venetoclax +, TBI 1.5 Gy, TI 7 Gy, no CoB
# [11] = Example 3 Group G: venetoclax +, TBI 1.5 Gy, TI 0 Gy, CoB aCD154
# [12] = Example 3 Group H: venetoclax +, TBI 0 Gy, TI 7 Gy, CoB aCD154
structure (smiles),measurement,setting,value
CN(C)CC[C@H](CSc1ccccc1)Nc1ccc(S(=O)(=O)NC(=O)c2ccc(N3CCN(Cc4ccccc4-c4ccc(Cl)cc4)CC3)cc2)cc1[N+](=O)[O-] [ABT-737],Selectivity among Bcl-2 family proteins,[1],"inhibits Bcl-2, Bcl-xL and Bcl-w but not Mcl-1"
Cc1c(-c2c(-c3ccc(F)o3)sc3ncnc(O[C@H](Cc4ccccc4OCc4ccnn4CC(F)(F)F)C(=O)O)c23)ccc(OCCN2CCN(C)CC2)c1Cl [S63845],"HSCs in BM, % of the pretreatment level",[2],51%
same,"total colony forming units (CFU), % of pretreatment",[2],45%
CC1(C)CCC(c2ccc(Cl)cc2)=C(CN2CCN(c3ccc(C(=O)NS(=O)(=O)c4ccc(N[C@H](CCN5CCOCC5)CSc5ccccc5)c(S(=O)(=O)C(F)(F)F)c4)cc3)CC2)C1 [navitoclax],"Bax expression in T cells, B cells and NK cells compared to pre Rx levels",[3],only observed with venetoclax but not with navitoclax
same,Platelet counts (thrombocytopenia),"[4]; 10 mg/kg x 11, after treatment",prolonged thrombocytopenia
CC1(C)CCC(CN2CCN(c3ccc(C(=O)NS(=O)(=O)c4ccc(NCC5CCOCC5)c([N+](=O)[O-])c4)c(Oc4cnc5[nH]ccc5c4)c3)CC2)=C(c2ccc(Cl)cc2)C1 [venetoclax],Graft survival,"Cynomolgus monkeys [5]; Example 2 Group C: ABT-199 +, TBI 1.5 Gy, TI 7 Gy",> 316 days and > 637 days and > 301 days and > 313 days and > 361 days and > 646 days
same,Graft survival,Cynomolgus monkeys [5]; [7],142 days and 100 days
same,Graft survival,Cynomolgus monkeys [5]; [8],163 days and 100 days and 97 days
same,Renal Allograft Survival (days),"Cynomolgus monkeys [5]; Example 3 Group D: venetoclax +, TBI 1.5 Gy, TI 7 Gy, CoB aCD154",exceeding 1000 days
same,Renal Allograft Survival (days),"Cynomolgus monkeys [5]; Example 3 Group D: venetoclax +, TBI 1.5 Gy, TI 7 Gy, CoB aCD154, listed as Venetoclax",> 1071 days and > 735 days and > 313 days
same,Renal Allograft Survival (days),Cynomolgus monkeys [5]; [9],> 574 days and > 308 days
same,Renal Allograft Survival (days),"Cynomolgus monkeys [5]; Example 3 Group E: venetoclax +, TBI 1.5 Gy, TI 7 Gy, CoB Belatacept, listed as Venetoclax",> 574 days and > 308 days and 237 days
same,Renal Allograft Survival (days),Cynomolgus monkeys [5]; [10],74 days and 127 days
same,Renal Allograft Survival (days),Cynomolgus monkeys [5]; [11],97 days and 100 days and 163 days
same,Renal Allograft Survival (days),Cynomolgus monkeys [5]; [12],120 days and 142 days
same,Chimerism,"Cynomolgus monkeys [6]; Example 2 Group C: ABT-199 10 mg/kg x 11 days (day -4 to 6), TBI 1.5 Gy, TI 7 Gy",3/3
same,Chimerism,Cynomolgus monkeys [6]; [7],0/2
same,Chimerism,Cynomolgus monkeys [6]; [8],2/2
same,Chimerism,"Cynomolgus monkeys [6]; Example 3 Group D: venetoclax 10 mg/kg x 11 IM, TBI 1.5 Gy, TI 7 Gy, CoB aCD154",5/5
same,Chimerism,Cynomolgus monkeys [6]; [9],3/3
same,Chimerism,Cynomolgus monkeys [6]; [10],0/2
same,Chimerism,Cynomolgus monkeys [6]; [11],3/3
same,Chimerism,Cynomolgus monkeys [6]; [12],0/2
same,Pancytopenia / neutropenia,"[4]; Example 2 Group C: ABT-199 +, TBI 1.5 Gy, TI 7 Gy, in contrast to Group A (TBI 3 Gy, no ABT-199)",without development of severe pancytopenia; also recorded: without neutropenia
same,"White blood cell counts, platelet counts, HCT (leukopenia, thrombocytopenia, anemia)","[4]; Example 3 Group D: venetoclax, TBI 1.5 Gy","no leukopenia, thrombocytopenia, or anemia; also recorded: stable"
